Data reported in US20090117177A1, “Echogenic microbubbles and microemulsions for ultrasound-enhanced nanoparticle-mediated delivery of agents” (priority 2005, published 2009).
≈ marks a conversion by molar mass, not a printed value.

Columns and labels:
[1] = system: HCT116 colon cancer tumors; experiment: HCT116 biodistribution, DOX uptake by cells of organs by flow cytometry; type: in vivo, male nu/nu mice
Experimental: (§1) DOX-loaded micelles were injected either intravenously (i.v.) or intratumorally (i.t.) at a DOX dosage of 3 mg/kg (growth rate studies) or 6 mg/kg (biodistribution studies).
Biodistribution studies: DOX uptake by the cells of various organs was measured by flow cytometry. Mice were intratumorally injected with either free (i.e., PBS-dissolved) DOX or micelle-encapsulated DOX. Ten hours after injection of the composition, mice were sacrificed and tumors and various organs were excised and digested in trypsin.

[2] = system: HCT116 colon cancer tumors; experiment: HCT116 tumor growth rates; type: in vivo, male nu/nu mice; conditions: intravenous injection, DOX 3 mg/kg
Experimental: Tumors: HCT116 colon cancer tumors were inoculated subcutaneously to the right flanks of male nu/nu mice. (See, FIGS. 24 and 25). In contrast to A2780 tumors, this tumor is characterized as being poorly vascularized (See, FIG. 24).
as §1
Tumor growth rates: Animals were randomly assigned to experimental and control groups, comprising five animals each. Intravenous treatment was initiated when tumor volume reached 50-100 mm^3. Intratumoral treatment was initiated when tumor volume reached 150-300 mm^3. A total of four injections were delivered twice a week for two weeks. For intratumoral injections, four injections of 25 μl drug solution each were made into four sites of a tumor.

colon cancer HCT116 = experiment: Sensitivity of HCT116 to DOX; type: cell-based, human
[3] = ten hours after intratumoral injection

## COc1cccc2c1C(=O)c1c(O)c3c(c(O)c1C2=O)C[C@@](O)(C(=O)CO)C[C@@H]3O[C@H]1C[C@H](N)[C@H](O)[C@H](C)O1 [DOX, doxorubicin]
[1]; ten hours after i.v. injection
  DOX internalization by tumor cells: did not deliver drug to tumor cells
[1]; [3]
  DOX in spleen cells: slightly higher
  DOX uptake by heart cells: significant uptake
[2]
  tumor response: high resistance to chemotherapy
Colon cancer HCT116
  IC50: 1.5 mg/L (≈ 2.76 µM)
